Source: patent US10377746B2, “Indolin-2-one derivatives” (Hoffmann-La Roche Inc., priority 2015, dated 2019)
pIC50: −log10 of the molar value.

What was measured:
mouse ENT-1 transporter = mouse ENT-1 transporter (Mus musculus (Mouse), UniProt Q9JIM1); test: Determination of adenosine transport activity (ENT1, [3H]-adenosine uptake); assay type: cell-based; details: stable cells expressing mouse ENT-1; [2,8-3H]-adenosine 6 nM, 20 min
Method: To measure adenosine transport activity of ENT-1 mammalian cells, stable cells expressing the mouse ENT-1 transporter were plated on day 1 in 96-well culture plates at the density of 60,000 cells/well, in complete DMEM/F12 medium supplemented with glutamax, 10% FBS and 10 μg/ml puromycin. On day 2, the medium was aspirated and the cells were washed twice with uptake buffer (10 mM Hepes-Tris, pH 7.4 containing 150 mM NaCl, 1 mM
CaCl2, 2.5 mM KCl, 2.5 mM MgSO4, 10 mM D-glucose) (UB). For inhibition experiments, cells were then incubated at RT with various concentrations of compounds with 1% DMSO final. Non-specific uptake was defined in the presence of 10 μM S-(4-Nitrobenzyl)-6-thioinosine (NBTI, Sigma Cat #N2255).
A solution containing [2,8-^3H]-adenosine 6 nM (40 Ci/mmol, American Radiolabeled chemicals Inc, Cat #ART 0287A) was then immediately added to the wells. The plates were then incubated for 20 min with gentle shaking and the reaction was stopped by aspiration of the mixture and washing (three times) with ice-cold UB. The cells were lysed by the addition of scintillation liquid, shaken 3 hours and the radioactivity in the cells was estimated using a microplates scintillation counter (TopCount NXT, Packard).

[1] = test system: behavioral signature of compound-treated mice; test: SmartCube behavioral signature similarity analysis; assay type: in vivo, mouse; details: for SmartCube similarity to major classes of compounds: i.p., in words; for discrimination rate vs Clozapine (1.0 mg/kg) / discrimination rate vs Olanzapine (0.25 mg/kg) / discrimination rate vs Risperidone (0.06 mg/kg): rate <=0.70 = similar
From the text: In addition to the reversal of L-687,414 induced hyperlocomotion experiment as described above, some compounds of the present invention have been tested in SmartCube®, an automated system in which the behaviors of compound-treated mice in response to multiple challenges are captured by digital video and analyzed with computer algorithms (Roberds et al., Frontiers in Neuroscience, 2011, Vol. 5, Art. 103, 1-4; Vadim Alexandrov, Dani Brunner, Taleen Hanania, Emer Leahy Eur. J. Pharmacol. 2015, 750, 82-99). In this way, the neuro-pharmacological effects of a test compound can be predicted by similarity to major classes of compounds, such as antipsychotics, anxiolytics and antidepressants.
SmartCube® was used to compare the behavioral signature of a test compound to a database of behavioral signatures obtained from a large set of clinically approved reference drugs, grouped per indications. In this way, the neuro-pharmacological effects of a test compound can be predicted by similarity to major classes of compounds, such as antipsychotics, anxiolytics and antidepressants. This approach is ideally suited to screen collections of existing drugs or drug candidates with previously unknown neuropharmacology, which could expedite the development of new and unexpected treatments for psychiatric disorders.
Some compounds of the present invention were injected i.p. at different doses 15 minutes before the test. At least 8 mice were used in each treatment group. Digital videos of the subjects were processed with computer vision algorithms to extract over 2000 dependent measures including frequency and duration of many different behavioral states. The results of the classifications are presented as bar charts for each compound and dose (mg/kg), the Y-axis indicates the relative probability that the test compound will show efficacy in the specific CNS indication.
Compounds of the present invention show similar signatures to those of atypical antipsychotics. An independent analysis was performed on the unclassified data to determine the similarity of the example compounds to active doses of known atypical antipsychotics. For this analysis, we use discrimination rate as the measure of separability between the two drugs, i.e. one drug's “distinguishability” from another. A rate equal to 50% (or 0.5) corresponds to zero distinguishability. […] In most cases, the example compounds show a similarity to risperidone, clozapine and olanzapine with a discrimination rate of ≤0.70.

[2] = test system: L-687,414-induced hyperlocomotion; test: L-687,414-induced hyperlocomotion; assay type: in vivo, mouse; details: mice; 30 mg/kg ip, 15 min before 50 mg/kg s.c. L-687,414
Method: The described compounds of formula I reduce L-687,414-induced hyperlocomotion. This was assessed by using a computerized Digiscan 16 Animal Activity Monitoring System (Omnitech Electronics, Columbus, Ohio) to quantify locomotor activity. Animals were kept under a 12 h light/dark cycle and experiments were performed during the light period. Each activity monitoring chamber consisted of a Plexiglas box (41×41×28 cm; W×L×H) with sawdust bedding on the floor surrounded by invisible horizontal and vertical infrared sensor beams. The test boxes were divided by a Plexiglas cross providing each mouse with 20×20 cm of moving space. Cages were connected to a Digiscan Analyzer linked to a computer that constantly collected the beam status information. Records of photocell beam interruptions for individual animals were taken every 5 min over the duration of the experimental session and the sum of the first 6 periods was used as the final parameter. At least 8 mice were used in each treatment group. Compounds were administered i.p. 15 min before a s.c. injection of 50 mg/kg of L-687,414. Mice were then transferred from their home cage to the recording chambers for a 15-min habituation phase allowing free exploration of the new environment. Horizontal activity was then recorded for a 30-min time period. The % inhibition of L-687,414-induced hyperlocomotion was calculated according to the equation: ((Veh+L-687,414horizontal activity−drug+L-687,414horizontal activity)/Veh+L-687,414horizontal activity)×100
ID50 values, defined as doses of each compound producing 50% inhibition of L-687,414-induced hyperlocomotion, were calculated by linear regression analysis of a dose-response data using an Excel-based computer-fitting program.
As data was not presupposed to be normally distributed, groups treated with test compounds were statistically compared with the control (vehicle-treated) group using one-tailed Mann Whitney U tests. […]

mouse ENT-1 transporter, sequence (Q9JIM1 whole entry): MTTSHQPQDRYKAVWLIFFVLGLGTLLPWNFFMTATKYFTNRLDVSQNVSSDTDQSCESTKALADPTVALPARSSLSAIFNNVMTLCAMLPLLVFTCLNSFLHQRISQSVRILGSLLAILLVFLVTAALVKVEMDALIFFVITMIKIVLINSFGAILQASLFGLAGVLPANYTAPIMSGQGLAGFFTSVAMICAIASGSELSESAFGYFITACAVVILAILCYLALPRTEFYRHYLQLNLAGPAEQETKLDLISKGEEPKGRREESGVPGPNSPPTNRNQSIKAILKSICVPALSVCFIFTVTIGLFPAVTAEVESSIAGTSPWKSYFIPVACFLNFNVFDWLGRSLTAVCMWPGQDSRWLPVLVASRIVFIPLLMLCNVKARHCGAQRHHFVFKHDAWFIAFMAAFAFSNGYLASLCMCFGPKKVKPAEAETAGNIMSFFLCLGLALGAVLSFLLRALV

| pIC50 (mouse ENT-1 transporter) | Compound | also measured |
| --- | --- | --- |
| 6.07 | Cc1ncc(-c2ccc3c(c2)N(c2cccc4sccc24)C(=O)C3(C)C)cn1 [Example 2, 1-(Benzo[b]thiophen-4-yl)-3,3-dimethyl-6-(2-methylpyrimidin-5-yl)indolin-2-one] | – |
| 7.10 | COCCN(C)S(=O)(=O)c1cncc(N2C(=O)C(C)(C)c3ccc(-c4cnc(C)nc4)cc32)c1 [Example 12, 5-(3,3-dimethyl-6-(2-methylpyrimidin-5-yl)-2-oxoindolin-1-yl)-N-(2-methoxyethyl)-N-methylpyridine-3-sulfonamide] | – |
| 6.66 | CSc1cncc(N2C(=O)C(C)(C)c3ccc(-c4cnc(C)nc4)cc32)c1 [Example 9, 3,3-Dimethyl-6-(2-methylpyrimidin-5-yl)-1-(5-(methylthio)pyridin-3-yl)indolin-2-one] | – |
| 6.77 | Cc1ncc(-c2ccc3c(c2)N(c2cncc(S(=O)(=O)N4CCC4)c2)C(=O)C3(C)C)cn1 [Example 11, 1-(5-(Azetidin-1-ylsulfonyl)pyridin-3-yl)-3,3-dimethyl-6-(2-methylpyrimidin-5-yl)indolin-2-one] | – |
| 6.51 | Cc1cncc(-c2ccc3c(c2)N(c2cncc(S(C)(=O)=O)c2)C(=O)C3(C)C)c1 [Example 16, 3,3-Dimethyl-6-(5-methylpyridin-3-yl)-1-(5-(methylsulfonyl)pyridin-3-yl)indolin-2-one] | – |
| 6.80 | Cc1ncc(-c2ccc3c(c2)N(c2ccc(S(C)(=O)=O)cn2)C(=O)C3(C)C)cn1 [Example 19, 3,3-Dimethyl-6-(2-methylpyrimidin-5-yl)-1-(5-(methylsulfonyl)pyridin-2-yl)indolin-2-one] | SmartCube similarity to major classes of compounds [1]: similarity to atypical antipsychotics; discrimination rate vs Clozapine (1.0 mg/kg) ([1]; test compound 5 mg/kg i.p.): 0.54; discrimination rate vs Olanzapine (0.25 mg/kg) ([1]; test compound 5 mg/kg i.p.): 0.52; discrimination rate vs Risperidone (0.06 mg/kg) ([1]; test compound 5 mg/kg i.p.): 0.50; Inhibition, ip of L-687,414-induced hyperlocomotion [2]: 93.5% |
| 7.41 | Cc1ncc(-c2ccc3c(c2)N(c2cnc(C4CC4)c(S(C)(=O)=O)c2)C(=O)C3(C)C)cn1 [Example 14, 1-(6-Cyclopropyl-5-(methylsulfonyl)pyridin-3-yl)-3,3-dimethyl-6-(2-methylpyrimidin-5-yl)indolin-2-one] | – |
| 7.57 | Cc1ncc(-c2ccc3c(c2)N(c2cncc(S(C)(=O)=O)c2)C(=O)C3(C)C)cc1F [Example 17, 6-(5-Fluoro-6-methylpyridin-3-yl)-3,3-dimethyl-1-(5-(methylsulfonyl)pyridin-3-yl)indolin-2-one] | – |
| 7.40 | Cc1ncc(-c2ccc3c(c2)N(c2cncc(S(C)(=O)=O)n2)C(=O)C3(C)C)cn1 [Example 4, 3,3-Dimethyl-6-(2-methylpyrimidin-5-yl)-1-(6-(methylsulfonyl)pyrazin-2-yl)indolin-2-one] | – |
| 6.72 | Cc1ncc(-c2ccc3c(c2)N(c2ccc4ccsc4c2)C(=O)C3(C)C)cn1 [Example 1, 1-(Benzo[b]thiophen-6-yl)-3,3-dimethyl-6-(2-methylpyrimidin-5-yl)indolin-2-one] | – |
| 6.89 | Cc1ncc(-c2ccc3c(c2)N(c2cncc(S(N)(=O)=O)c2)C(=O)C3(C)C)cn1 [Example 10, 5-(3,3-Dimethyl-6-(2-methylpyrimidin-5-yl)-2-oxoindolin-1-yl)pyridine-3-sulfonamide] | – |
| 7.40 | Cc1ncc(-c2ccc3c(c2)N(c2cncc(S(=O)(=O)C4CC4)c2)C(=O)C3(C)C)cn1 [Example 8, 1-(5-(Cyclopropylsulfonyl)pyridin-3-yl)-3,3-dimethyl-6-(2-methylpyrimidin-5-yl)indolin-2-one] | – |
| 7.35 | Cc1ncc(-c2ccc3c(c2)N(c2cncc(S(=O)(=O)N(C)C)c2)C(=O)C3(C)C)cn1 [Example 6, 5-(3,3-Dimethyl-6-(2-methylpyrimidin-5-yl)-2-oxoindolin-1-yl)-N,N-dimethylpyridine-3-sulfonamide] | – |
| 7.49 | Cc1ncc(-c2ccc3c(c2)N(c2cncc(S(C)(=O)=O)c2)C(=O)C3(C)C)cn1 [Example 3, 3,3-Dimethyl-6-(2-methylpyrimidin-5-yl)-1-(5-(methylsulfonyl)pyridin-3-yl)indolin-2-one] | SmartCube similarity to major classes of compounds [1]: similarity to atypical antipsychotics; discrimination rate vs Clozapine (1.0 mg/kg) ([1]; test compound 3 mg/kg i.p.): 0.58; discrimination rate vs Olanzapine (0.25 mg/kg) ([1]; test compound 3 mg/kg i.p.): 0.60; discrimination rate vs Risperidone (0.06 mg/kg) ([1]; test compound 3 mg/kg i.p.): 0.67; Inhibition, ip of L-687,414-induced hyperlocomotion [2]: 92.8% |
| 7.14 | CNS(=O)(=O)c1cncc(N2C(=O)C(C)(C)c3ccc(-c4cnc(C)nc4)cc32)c1 [Example 13, 5-(3,3-Dimethyl-6-(2-methylpyrimidin-5-yl)-2-oxoindolin-1-yl)-N-methylpyridine-3-sulfonamide] | – |
| 6.87 | Cc1ncc(-c2ccc3c(c2)N(c2cncc(S(=O)(=O)C(C)C)c2)C(=O)C3(C)C)cn1 [Example 7, 1-(5-(Isopropylsulfonyl)pyridin-3-yl)-3,3-dimethyl-6-(2-methylpyrimidin-5-yl)indolin-2-one] | – |
| 6.97 | Cc1ncc(-c2ccc3c(c2)N(c2cccc(S(C)(=O)=O)c2)C(=O)C3(C)C)cn1 [Example 5, 3,3-Dimethyl-6-(2-methylpyrimidin-5-yl)-1-(3-(methylsulfonyl)phenyl)indolin-2-one] | SmartCube similarity to major classes of compounds [1]: similarity to atypical antipsychotics; discrimination rate vs Clozapine (1.0 mg/kg) ([1]; test compound 5 mg/kg i.p.): 0.55; discrimination rate vs Olanzapine (0.25 mg/kg) ([1]; test compound 5 mg/kg i.p.): 0.54; discrimination rate vs Risperidone (0.06 mg/kg) ([1]; test compound 5 mg/kg i.p.): 0.52; Inhibition, ip of L-687,414-induced hyperlocomotion [2]: 96% |
| 6.64 | Cc1ncc(-c2ccc3c(c2)N(c2cncc(S(C)(=O)=O)c2)C(=O)C32CCC2)cn1 [Example 20, 6′-(2-Methylpyrimidin-5-yl)-1′-(5-(methylsulfonyl)pyridin-3-yl)spiro[cyclobutane-1,3′-indolin]-2′-one] | – |
| 7.57 | Cc1ncc(-c2ccc3c(c2)N(c2cnc(S(C)(=O)=O)cn2)C(=O)C3(C)C)cn1 [Example 18, 3,3-Dimethyl-6-(2-methylpyrimidin-5-yl)-1-(5-(methylsulfonyl)pyrazin-2-yl)indolin-2-one] | – |

| Compound | pIC50 (mouse ENT-1 transporter) | also measured |
| --- | --- | --- |
| 3,3-Dimethyl-6-(2-methyl-1-oxidopyrimidin-1-ium-5-yl)-1-(6-methylsulfonylpyrazin-2-yl)indol-2-one [Example 15] | 6.66 | – |
